What was measured:
[1] = tested on: MOLM-14 D835Y cells, FLT3 ITD and FLT3 D835Y; experiment: Cell proliferation assay (CellTiter-Glo), MOLM-14 D835Y; type: cell-based; details: Homo sapiens, 72 h, 3d-Growth, GMean
How it was run: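 Three-day growth at 37 °C, 5% CO2 under compound (1 μM top final, 1:3 dilutions, eight points, 0.2% DMSO), read as ATP luminescence by CellTiter-Glo for IC50. Cells: MOLM-14 with FLT3 ITD plus D835Y or F691L, and IL-3-deprived Ba/F3 transfected with FLT3 ITD/D835Y, 1×10^4 per well.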

FLT3-D835Y = biological target: T1, FLT3-D835Y (Homo sapiens, UniProt P36888, D835Y); experiment: AlphaScreen kinase assay with recombinant enzyme, FLT3-D835Y; type: biochemical; details: 8pt, GMean
T1 construct: purchased Invitrogen PV3967
T1 sequence (P36888 27-993 D835Y): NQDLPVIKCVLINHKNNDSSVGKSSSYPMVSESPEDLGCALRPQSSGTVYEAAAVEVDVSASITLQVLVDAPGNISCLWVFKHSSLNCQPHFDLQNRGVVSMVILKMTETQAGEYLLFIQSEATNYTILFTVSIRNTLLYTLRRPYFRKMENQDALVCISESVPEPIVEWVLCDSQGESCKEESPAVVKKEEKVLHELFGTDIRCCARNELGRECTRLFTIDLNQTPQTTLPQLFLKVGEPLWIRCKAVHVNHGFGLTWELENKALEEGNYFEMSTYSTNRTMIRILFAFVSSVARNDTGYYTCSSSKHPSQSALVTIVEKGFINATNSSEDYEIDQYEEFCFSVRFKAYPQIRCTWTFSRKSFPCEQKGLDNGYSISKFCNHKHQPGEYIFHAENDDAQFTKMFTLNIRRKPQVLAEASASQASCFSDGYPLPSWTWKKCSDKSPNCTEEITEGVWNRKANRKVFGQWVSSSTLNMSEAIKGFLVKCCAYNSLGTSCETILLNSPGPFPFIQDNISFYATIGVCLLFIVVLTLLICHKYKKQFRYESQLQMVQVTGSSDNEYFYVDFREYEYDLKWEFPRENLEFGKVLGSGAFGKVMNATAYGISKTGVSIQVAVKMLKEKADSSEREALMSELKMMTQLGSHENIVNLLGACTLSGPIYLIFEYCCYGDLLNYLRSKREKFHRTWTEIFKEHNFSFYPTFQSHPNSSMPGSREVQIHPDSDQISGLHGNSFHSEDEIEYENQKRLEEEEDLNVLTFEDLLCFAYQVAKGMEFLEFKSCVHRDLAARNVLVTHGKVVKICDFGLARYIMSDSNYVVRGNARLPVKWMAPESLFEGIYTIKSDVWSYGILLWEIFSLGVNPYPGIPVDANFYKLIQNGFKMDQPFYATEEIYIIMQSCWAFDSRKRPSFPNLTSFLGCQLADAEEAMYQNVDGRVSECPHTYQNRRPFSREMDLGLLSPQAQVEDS
How it was run: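 Read-out: AlphaScreen proximity signal at 580 nm (680 nm excitation), lost as peptide tyrosine phosphorylation falls. Substrate Biotin-GG(EEEEY)10EE at 30 nM; IC50 runs at 10 μM (FLT3 mutants) or 100 μM (c-KIT) final. Donor beads 20 min, then acceptor beads 60 min, room temperature.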

SMILES | IC50 [1] [µM] | IC50 (FLT3-D835Y) [µM]
N#CC1CCN(C(=O)c2cccc(-c3cnc4[nH]c(C5=CCCCC5)cc4c3)n2)C1 (centres unmarked) [Compound P-0120, 1-[6-[2-(cyclohexen-1-yl)-1H-pyrrolo[2,3-b]pyridin-5-yl]pyridine-2-carbonyl]pyrrolidine-3-carbonitrile] | 0.0001 to 10 | 0.0001 to 10
N#C[C@@H]1CCN(C(=O)c2cccc(-c3cnc4[nH]c(-c5ccccc5)cc4c3)n2)C1 [Compound P-0122, (3R)-1-[6-(2-phenyl-1H-pyrrolo[2,3-b]pyridin-5-yl)pyridine-2-carbonyl]pyrrolidine-3-carbonitrile] | 0.0001 to 10 | 0.0001 to 10
N#CCCNC(=O)c1cccc(-c2cnc3[nH]c(-c4ccccc4)c(Cl)c3c2)n1 [Compound P-0125, 6-(3-chloro-2-phenyl-1H-pyrrolo[2,3-b]pyridin-5-yl)-N-(2-cyanoethyl)pyridine-2-carboxamide] | 0.0001 to 10 | 0.0001 to 10
CC(C)(C#N)CNC(=O)c1cccc(-c2cnc3[nH]c(-c4ccccc4)c(Br)c3c2)n1 [Compound P-0126, 6-(3-bromo-2-phenyl-1H-pyrrolo[2,3-b]pyridin-5-yl)-N-(2-cyano-2-methyl-propyl)pyridine-2-carboxamide] | 0.0001 to 10 | 0.0001 to 10
CC(C)(C#N)CNC(=O)c1cccc(-c2cnc3[nH]c(-c4ccccc4)c(I)c3c2)n1 [Compound P-0127, N-(2-cyano-2-methyl-propyl)-6-(3-iodo-2-phenyl-1H-pyrrolo[2,3-b]pyridin-5-yl)pyridine-2-carboxamide] | 0.0001 to 10 | 0.0001 to 10
N#Cc1cccc(-c2cc3cc(-c4cccc(C(=O)N5CCC(C#N)C5)n4)cnc3[nH]2)c1 (centres unmarked) [Compound P-0133, 1-[6-[2-(3-cyanophenyl)-1H-pyrrolo[2,3-b]pyridin-5-yl]pyridine-2-carbonyl]pyrrolidine-3-carbonitrile] | 0.0001 to 10 | 0.0001 to 10
N#CC1CCN(C(=O)c2cccc(-c3cnc4[nH]c(C5=CCN(C(=O)C6CC6)C5)cc4c3)n2)C1 (centres unmarked) [Compound P-0136, 1-[6-[2-[1-(cyclopropanecarbonyl)-2,5-dihydropyrrol-3-yl]-1H-pyrrolo[2,3-b]pyridin-5-yl]pyridine-2-carbonyl]pyrrolidine-3-carbonitrile] | 0.0001 to 10 | 0.0001 to 10
N#CC1(CNC(=O)c2cccc(-c3cnc4[nH]c(-c5ccccc5)cc4c3)n2)CC1 [Compound P-0137, N-[(1-cyanocyclopropyl)methyl]-6-(2-phenyl-1H-pyrrolo[2,3-b]pyridin-5-yl)pyridine-2-carboxamide] | 0.0001 to 10 | 0.0001 to 10
CC(C)(C#N)CNC(=O)c1cccc(-c2cnc3[nH]c(-c4ccccc4)c(Cl)c3c2)n1 [Compound P-0138, 6-(3-chloro-2-phenyl-1H-pyrrolo[2,3-b]pyridin-5-yl)-N-(2-cyano-2-methyl-propyl)pyridine-2-carboxamide] | 0.0001 to 10 | 0.0001 to 10
N#CC1(NC(=O)c2cccc(-c3cnc4[nH]c(-c5ccccc5)c(Cl)c4c3)n2)CC1 [Compound P-0139, 6-(3-chloro-2-phenyl-1H-pyrrolo[2,3-b]pyridin-5-yl)-N-(1-cyanocyclopropyl)pyridine-2-carboxamide] | 0.0001 to 10 | 0.0001 to 10
CC(C)(C)NC(=O)c1cccc(-c2cnc3[nH]c(-c4ccccc4)cc3c2)n1 [Compound P-0140, N-tert-butyl-6-(2-phenyl-1H-pyrrolo[2,3-b]pyridin-5-yl)pyridine-2-carboxamide] | 0.0001 to 10 | 0.0001 to 10
N#CC1CCN(C(=O)c2cccc(-c3cnc4[nH]c(C5=CCOCC5)c(Cl)c4c3)n2)C1 (centres unmarked) [Compound P-0142, 1-[6-[3-chloro-2-(3,6-dihydro-2H-pyran-4-yl)-1H-pyrrolo[2,3-b]pyridin-5-yl]pyridine-2-carbonyl]pyrrolidine-3-carbonitrile] | 0.0001 to 10 | 0.0001 to 10
CC(C)(C#N)NC(=O)c1cccc(-c2cnc3[nH]c(-c4ccc(F)cc4)cc3c2)n1 [Compound P-0145, N-(1-cyano-1-methyl-ethyl)-6-[2-(4-fluorophenyl)-1H-pyrrolo[2,3-b]pyridin-5-yl]pyridine-2-carboxamide] | 0.0001 to 10 | 0.0001 to 10
N#CC1(NC(=O)c2cccc(-c3cnc4[nH]c(-c5ccccc5)cc4c3)n2)CCCC1 [Compound P-0146, N-(1-cyanocyclopentyl)-6-(2-phenyl-1H-pyrrolo[2,3-b]pyridin-5-yl)pyridine-2-carboxamide] | 0.0001 to 10 | 0.0001 to 10

The next lines start with the values.

IC50 [1] [µM] | IC50 (FLT3-D835Y) [µM] | SMILES
0.0001 to 10 | 0.0001 to 10 | CN(CCC#N)C(=O)c1cccc(-c2cnc3[nH]c(-c4ccccc4)cc3c2)n1 [Compound P-0119, N-(2-cyanoethyl)-N-methyl-6-(2-phenyl-1H-pyrrolo[2,3-b]pyridin-5-yl)pyridine-2-carboxamide]
0.0001 to 10 | 0.0001 to 10 | N#CC1CCN(S(=O)(=O)c2cccc(-c3cnc4[nH]c(-c5ccccc5)cc4c3)n2)C1 (centres unmarked) [Compound P-0121, 1-[[6-(2-phenyl-1H-pyrrolo[2,3-b]pyridin-5-yl)-2-pyridyl]sulfonyl]pyrrolidine-3-carbonitrile]
0.0001 to 10 | 0.0001 to 10 | CC(C)(C#N)CNC(=O)c1cccc(-c2cnc3[nH]c(C4=CCCCC4)cc3c2)n1 [Compound P-0123, N-(2-cyano-2-methyl-propyl)-6-[2-(cyclohexen-1-yl)-1H-pyrrolo[2,3-b]pyridin-5-yl]pyridine-2-carboxamide]
0.0001 to 10 | 0.0001 to 10 | Cc1cc(C#N)ccc1-c1cc2cc(-c3cccc(C(=O)N4CCC(C#N)C4)n3)cnc2[nH]1 (centres unmarked) [Compound P-0130, 1-[6-[2-(4-cyano-2-methyl-phenyl)-1H-pyrrolo[2,3-b]pyridin-5-yl]pyridine-2-carbonyl]pyrrolidine-3-carbonitrile]
0.0001 to 10 | 0.0001 to 10 | CC1(C)CC=C(c2cc3cc(-c4cccc(C(=O)N5CCC(C#N)C5)n4)cnc3[nH]2)CC1 (centres unmarked) [Compound P-0131, 1-[6-[2-(4,4-dimethylcyclohexen-1-yl)-1H-pyrrolo[2,3-b]pyridin-5-yl]pyridine-2-carbonyl]pyrrolidine-3-carbonitrile]
0.0001 to 10 | 0.0001 to 10 | N#CC1CCN(C(=O)c2cccc(-c3cnc4[nH]c(C5=CCOCC5)cc4c3)n2)C1 (centres unmarked) [Compound P-0132, 1-[6-[2-(3,6-dihydro-2H-pyran-4-yl)-1H-pyrrolo[2,3-b]pyridin-5-yl]pyridine-2-carbonyl]pyrrolidine-3-carbonitrile]
0.0001 to 10 | 0.0001 to 10 | N#CC1CCN(C(=O)c2cccc(-c3cnc4[nH]c(-c5cnn(C(F)F)c5)cc4c3)n2)C1 (centres unmarked) [Compound P-0134, 1-[6-[2-[1-(difluoromethyl)pyrazol-4-yl]-1H-pyrrolo[2,3-b]pyridin-5-yl]pyridine-2-carbonyl]pyrrolidine-3-carbonitrile]
0.0001 to 10 | 0.0001 to 10 | CC(C)(C)OC(=O)N1CC=C(c2cc3cc(-c4cccc(C(=O)N5CCC(C#N)C5)n4)cnc3[nH]2)C1 (centres unmarked) [Compound P-0135, tert-butyl 3-[5-[6-(3-cyanopyrrolidine-1-carbonyl)-2-pyridyl]-1H-pyrrolo[2,3-b]pyridin-2-yl]-2,5-dihydropyrrole-1-carboxylate]
0.0001 to 10 | 0.0001 to 10 | CC(C)(C#N)CNC(=O)c1cccc(-c2cnc3[nH]c(C4=CCN(C(=O)C5CC5)C4)cc3c2)n1 [Compound P-0141, N-(2-cyano-2-methyl-propyl)-6-[2-[1-(cyclopropanecarbonyl)-2,5-dihydropyrrol-3-yl]-1H-pyrrolo[2,3-b]pyridin-5-yl]pyridine-2-carboxamide]
0.0001 to 10 | 0.0001 to 10 | N#CCCNC(=O)c1cccc(-c2cnc3[nH]c(-c4ccccc4)c(I)c3c2)n1 [Compound P-0143, N-(2-cyanoethyl)-6-(3-iodo-2-phenyl-1H-pyrrolo[2,3-b]pyridin-5-yl)pyridine-2-carboxamide]
0.0001 to 10 | 0.0001 to 10 | CC(C)(C#N)CNC(=O)c1cccc(-c2cnc3[nH]c(-c4ccc(F)cc4)cc3c2)n1 [Compound P-0144, N-(2-cyano-2-methyl-propyl)-6-[2-(4-fluorophenyl)-1H-pyrrolo[2,3-b]pyridin-5-yl]pyridine-2-carboxamide]

Source: patent US9938273B2 (Plexxikon Inc., priority 2015, dated 2018)
